Experimental data from EP4159213A1, “PHARMACEUTICAL COMPOSITIONS FOR USE IN PREVENTION AND/OR TREATMENT AND/OR CURE OF HEPATITIS B VIRUS” (Katholieke Universiteit Leuven, priority 2021, dated 2023).
Read-outs that look alike come from different tables or passages of the source.

Legend:
Format in all cases: cell-based
human NTCP [1] = biological target: T1, human NTCP (Homo sapiens, UniProt Q14973); assay: Inhibition of tauro-nor-THCA-24-DBD uptake in NTCP-transfected CHO cells; parameters: expressed in transfected cells; host or cells: CHO cells, geneticin selection, expression induced with sodium butyrate; conditions: for Ki / concentration-dependent inhibition of tauro-nor-THCA-24-DBD uptake: 3 µM tauro-nor-THCA-24-DBD; for Ki: read-out: Ki; for Uptake of tauro-nor-THCA-24-DBD (% of control): compound at equimolar concentration with 3 µM tauro-nor-THCA-24-DBD, triplicate; for concentration-dependent inhibition of tauro-nor-THCA-24-DBD uptake: multiple inhibitor concentrations
T1 sequence (Q14973 1-349): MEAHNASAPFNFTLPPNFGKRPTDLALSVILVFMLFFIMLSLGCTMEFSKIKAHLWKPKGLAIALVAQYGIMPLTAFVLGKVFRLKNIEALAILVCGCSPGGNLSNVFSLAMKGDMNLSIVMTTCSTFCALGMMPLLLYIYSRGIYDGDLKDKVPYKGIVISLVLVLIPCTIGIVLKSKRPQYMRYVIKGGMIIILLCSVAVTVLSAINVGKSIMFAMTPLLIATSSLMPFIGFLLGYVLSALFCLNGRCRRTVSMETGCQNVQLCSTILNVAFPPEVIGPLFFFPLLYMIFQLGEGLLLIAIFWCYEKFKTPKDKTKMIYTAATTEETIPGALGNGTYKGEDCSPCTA
Method: (§1) The cells were placed in an incubator at 37 °C and 5% CO2. The culture medium consisted of DMEM with 1 g·L^-1 glucose and 25 mM HEPES, supplemented with 10% FBS, 0.05 mg·mL^-1 L-proline, 100 IU·mL^-1 penicillin, 100 […], 2 mM glutamine, 0.11 mg·mL^-1 sodium pyruvate. To ensure selection of NTCP-transfected cells, 0.5 mg·mL^-1 geneticin was added to the medium of the transfected cells. Cells were seeded in black 96-well plates with transparent bottom at a density of 6000 cells·well^-1 and 4000 cells·well^-1 for wild-type and transfected cells, respectively. The medium was replaced every other day and 5 mM sodium butyrate was added to induce protein expression at least 36 h before the start of the experiments. Experiments were performed on day 4 or 5 after seeding when confluence was reached.
Furthermore, to analyse the uptake experiments in NTCP-transfected CHO cells, cells were rinsed twice with 200 µL-well^-1 uptake buffer (HBSS containing 10 mM HEPES, pH 7.4) at 37 °C and subsequently preincubated with 100 µL uptake buffer for 15 minutes. For inhibition experiments, compounds were added at double concentration during preincubation. Uptake was initiated by adding 100 µL double-concentrated tauro-nor-THCA-24-DBD solution in uptake buffer. Cells were incubated for 15 minutes. The reaction was quenched by aspirating the incubation mixture and washing four times with ice cold uptake buffer. The cells were lysed with 100 µL 0.5% Triton X-100 in PBS and placed on a plate shaker (300 rpm) at room temperature for 30 minutes. Uptake of tauro-nor-THCA-24-DBD was determined using fluorescence spectroscopy (excitation 440 nm, emission 580 nm) using a Tecan Infinite 200 plate reader (Tecan Benelux, Mechelen, Belgium). Protein content of each well was determined with the BCA Protein assay (Thermo Fisher Scientific, Waltham, MA) performed according to the manufacturer's protocol. Uptake kinetics of tauro-nor-THCA-24-DBD were determined by incubating eight different concentrations in the absence of any compound. […] All conditions were tested in triplicate.
Uptake of tauro-nor-THCA-24-DBD in presence of compounds was expressed to uptake of the control for each batch, i.e. when no compound was present.
For determination of the IC50, the uptake in presence of various concentrations of inhibitor was fitted to the sigmoid Emax model: E = Emax −(Emax−E0) × (([I])^n)/(([I])^n + IC50^n) [formula] with E the uptake of tauro-nor-THCA-24-DBD, E0 the uptake at maximal inhibition by the compound, Emax the uptake at minimal inhibition, IC50 the concentration of the inhibitor at half maximal inhibition, n the Hill coefficient and [I] the concentration of the inhibitor. All curves were fitted with nonlinear least squares regression using R version 3.5.1.
Assuming competitive inhibition, the Cheng-Prusoff equation was used to determine the Ki value: Ki = (IC50)/(1 + ([S])/(Km)) [formula] where Ki is the binding affinity of the inhibitor, IC50 the concentration of the inhibitor at half maximal inhibition, [S] the substrate concentration, and Km the Michaelis-Menten constant of the substrate.

human NTCP [2] = biological target: T1, human NTCP; assay: as above; parameters: expressed in transfected cells; host or cells: CHO cells, geneticin-selected, expression induced with sodium butyrate
Method: as §1, with “The medium was replaced every other day and 5 mM sodium butyrate was added to induce protein expression at least 36 h before the start of the experiments. Experiments were performed on day 4 or 5 after seeding when confluence was reached.” left out
(§2) Furthermore, to analyse the uptake experiments in NTCP-transfected CHO cells, cells were rinsed twice with 200 µL-well^-1 uptake buffer (HBSS containing 10 mM HEPES, pH 7.4) at 37 °C and subsequently preincubated with 100 µL uptake buffer for 15 minutes. […] Uptake of tauro-nor-THCA-24-DBD was determined using fluorescence spectroscopy (excitation 440 nm, emission 580 nm) using a Tecan Infinite 200 plate reader (Tecan Benelux, Mechelen, Belgium). Protein content of each well was determined with the BCA Protein assay (Thermo Fisher Scientific, Waltham, MA) performed according to the manufacturer's protocol. Uptake kinetics of tauro-nor-THCA-24-DBD were determined by incubating eight different concentrations in the absence of any compound. […]

human NTCP [3] = biological target: T1, human NTCP; assay: Uptake kinetics of tauro-nor-THCA-24-DBD in NTCP-transfected CHO cells; parameters: expressed in transfected cells; host or cells: CHO cells, geneticin selection, expression induced with sodium butyrate
Method: as §1, with “To culture of NTCP-transfected CHO cells, wild-type and human NTCP-transfected CHO cells were cultured from passage 20 to 45 in T-75 flasks (Greiner-Bio-One, Wemmel, Belgium) as prescribed previously (Treiber et al., 2007). The cells” for “The cells”
as §2, with “minutes. For inhibition experiments, compounds were added at double concentration during preincubation.” for “minutes.”, “compound. The inhibitory potential of all compounds of the Spectrum Collection (n = 2000) and the ChemDiv library (n = 556) were determined at equimolar concentrations with 3 µM tauro-nor-THCA-24-DBD.” for “compound.”

[4] = Cheng-Prusoff from IC50, screening hits
[5] = concentration dependent uptake, 15 minutes, NTCP-transfected CHO cells, Michaelis-Menten fit

| Compound | Uptake of tauro-nor-THCA-24-DBD (% of control) (human NTCP [1]) | concentration-dependent inhibition of tauro-nor-THCA-24-DBD uptake (human NTCP [1]) | other results |
| --- | --- | --- | --- |
| COP(=S)(OC)Oc1ccc(Sc2ccc(OP(=S)(OC)OC)cc2)cc1 [Temefos] | 38.51 % of control | – | Ki (human NTCP [1]; [4]): 4.16 µM |
| COc1cc2c3cc1Oc1cc(ccc1O)C[C@@H]1c4c(cc(OC)c(O)c4Oc4ccc(cc4)C[C@@H]3N(C)CC2)CC[N+]1(C)C.Cl.O.O.O.O.O.[Cl-] [Tubocurarine chloride] | 49.76 % of control | – | – |
| Nc1nc(=O)c2[nH]c(=O)cnc2[nH]1 [Xanthopterin] | 49.67 % of control | – | – |
| CCOc1nc2cccc(C(=O)O)c2n1Cc1ccc(-c2ccccc2-c2nnn[nH]2)cc1 [candesartan] | – | – | Ki (human NTCP [1]; values given with ± spread): 50.9 ± 9.9 µM |
| CC[C@H]1OC(=O)[C@H](C)[C@@H](O[C@H]2C[C@@](C)(OC)[C@@H](O)[C@H](C)O2)[C@H](C)[C@@H](O[C@@H]2O[C@H](C)C[C@H](N(C)C)[C@H]2O)[C@](C)(O)C[C@@H](C)C(=O)[C@H](C)[C@@H](O)[C@]1(C)O [erythromycin] | – | Only candesartan showed inhibition | – |
| O=C1c2c(O)cc(O)cc2OC(c2ccc(O)cc2)C1c1c(O)cc(O)c2c(=O)cc(-c3ccc(O)c(O)c3)oc12 (stereo not drawn) [fukugetin] | – | showed concentration-dependent inhibition | – |
| O=c1c(O)c(-c2ccc(O)c(O)c2)oc2cc(O)cc(O)c12 [quercetin] | – | did not show concentration-dependent inhibition | – |
| Cc1cc2c(C(=O)NC[C@H](C)c3ccccc3)c(O)c(O)cc2c(O)c1-c1c(C)cc2c(C(=O)NC[C@H](C)c3ccccc3)c(O)c(O)cc2c1O [sabutoclax] | – | showed concentration-dependent inhibition | Ki (human NTCP [1]; values given with ± spread): 0.522 ± 0.077 µM |
| O=C(O)c1cc(O)c2c(c1)[C@@H]([C@H]1c3cc(C(=O)O)cc(O)c3C(=O)c3c(O[C@@H]4O[C@H](CO)[C@@H](O)[C@H](O)[C@H]4O)cccc31)c1cccc(O[C@@H]3O[C@H](CO)[C@@H](O)[C@H](O)[C@H]3O)c1C2=O [sennoside B] | – | did not show concentration-dependent inhibition | – |
| Dehydroavocatin-1 -acetate | 44.14 % of control | – | Ki (human NTCP [1]; [4]): 118 µM |
| Echinocystic acid | 24.64 % of control | – | – |
| Gramicidin | – | – | Ki (human NTCP [2]; 3 µM tauro-nor-THCA-24-DBD, Cheng-Prusoff from IC50, screening hits): 7.59 µM; Uptake of tauro-nor-THCA-24-DBD (% of control) (human NTCP [2]; compound at equimolar concentration with 3 µM tauro-nor-THCA-24-DBD, triplicate): 37.54 % of control |
| Oligomycin (A shown) | 33.87 % of control | – | Ki (human NTCP [1]; [4]): 0.26 µM |
| tauro-nor-THCA-24-DBD | – | – | Km (human NTCP [3]; [5]): 9.2 ± 1.8 µM; Vmax (human NTCP [3]; [5]): 322.1 ± 18.3 pmol·mg protein^-1·min^-1; uptake clearance (human NTCP [3]; corresponds to Vmax and Km): 35.0 µL·mg protein^-1· min^-1 |
